Source: patent publication US8173606B2, “Sulfated oligosaccharide derivatives” (Progen Pharmaceuticals Limited, priority 2004, dated 2012)

Target: T1, heparanase (Homo sapiens, UniProt Q9Y251)
T1 sequence (Q9Y251 158-543 limits assumed): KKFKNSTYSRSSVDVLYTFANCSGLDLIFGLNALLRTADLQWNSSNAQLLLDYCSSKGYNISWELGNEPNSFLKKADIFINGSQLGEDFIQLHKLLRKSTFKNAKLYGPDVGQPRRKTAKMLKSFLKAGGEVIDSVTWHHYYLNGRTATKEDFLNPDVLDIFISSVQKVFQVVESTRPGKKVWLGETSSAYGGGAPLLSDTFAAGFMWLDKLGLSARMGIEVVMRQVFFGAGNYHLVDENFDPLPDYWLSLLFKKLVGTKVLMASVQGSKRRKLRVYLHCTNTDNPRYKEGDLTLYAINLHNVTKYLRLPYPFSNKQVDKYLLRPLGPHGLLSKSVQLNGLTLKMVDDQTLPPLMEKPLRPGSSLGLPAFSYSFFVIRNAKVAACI
T1 sequence (Q9Y251 36-109 limits assumed): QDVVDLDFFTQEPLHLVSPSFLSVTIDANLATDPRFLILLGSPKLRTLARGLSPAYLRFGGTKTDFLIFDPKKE
Assay: Heparanase inhibition, Microcon ultrafiltration assay
Type: biochemical
Conditions: 3H labelled HS, pH 5.0, 22° C., 2.5 h
Procedure: The heparanase assays were performed using a Microcon ultrafiltration assay. The assays rely on the principle of physically separating heparan sulfate (HS) that has been digested by heparanase from native HS to determine heparanase activity. The assay uses ultrafiltration devices (Microcon YM-10) to separate the smaller heparanase-cleaved HS fragments from native HS.
A reaction was set up with a volume of 90 μL, • 40 mM acetate buffer (pH 5.0) • 0.1 mg/mL BSA • 90 ng heparanase • 2.5 μM ^3H labelled HS • various concentrations of inhibitors.
The reactions were set up with all components except the ^3H labelled HS and allowed to equilibrate for 10 min at 22° C. The assays were then initiated by adding the HS and immediately 20 μL was taken, mixed with 80 μL of 10 mM phosphate (pH 7.0) and the 100 μL transferred to a Microcon YM-10 concentrator which was then centrifuged at approximately 14000 g for 5 min. The solution that passed through the membrane (filtrate) was retained. This sample was considered the time=0 sample. The assays (now 70 μL in volume) were allowed to react at 22° C. for 2.5 h and then the filtration step was repeated for three aliquots of 20 μL from each assay.
The time=0 filtrate and the three 2.5 h filtrate samples were counted for ^3H. The difference between the time=0 and the averaged 2.5 h samples gave the amount of heparanase activity. All inhibition assays were run with a heparanase standard assay which was identical to the assay composition above except no inhibitor was present and the amount of heparanase inhibition in the other assays determined by comparison with this standard.

Substance	IC50 [nM]
Benzyl Glycoside Polysulfate [PG500]	1830 ± 483
Octyl Glycoside Polysulfate [PG501]	1640 ± 406
